From patent publication US20250197403A1, “HETEROARYL COMPOUNDS FOR TREATMENT OF COMPLEMENT FACTOR D MEDIATED DISORDERS” (Achillion Pharmaceuticals, Inc., priority 2020, published 2025)
pIC50: −log10 of the molar value.

These compounds were tested against Human Factor D (Homo sapiens (Human), UniProt P00746) (assay: Human Factor D Assay). Settings: Human Factor D 80 nM, substrate Z-L-Lys-SBzl, assay according to Example 3.
Type: biochemical
Description: The assay according to Example 3 was used to determine the IC50's of the compounds. Other standard factor D inhibition assays are also available.
Human Factor D (purified from human serum, Complement Technology, Inc.) at 80 nM final concentration is incubated with test compound at various concentrations for 5 min at room temperature in 50 mM Tris, 1M NaCl, pH 7.5. A synthetic substrate Z-L-Lys-SBzl and DTNB (Ellman's reagent) are added to final concentrations of 100 μM each. Absorbance at 405 nm (A405) is recorded at 30 second intervals for 30 min using a microplate spectrophotometer. IC50 values are calculated by nonlinear regression of complement Factor D reaction rates as a function of test compound concentration.

Human Factor D, sequence (P00746 26-253): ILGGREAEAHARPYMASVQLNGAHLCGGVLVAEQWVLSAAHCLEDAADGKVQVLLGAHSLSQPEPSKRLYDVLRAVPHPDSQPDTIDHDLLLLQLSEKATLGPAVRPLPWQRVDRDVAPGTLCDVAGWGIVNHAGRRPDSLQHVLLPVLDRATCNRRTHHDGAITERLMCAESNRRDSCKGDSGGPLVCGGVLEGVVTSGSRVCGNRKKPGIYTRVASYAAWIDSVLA

Structure (SMILES)	pIC50
CC(=O)c1cn(CC(=O)N2C[C@H](F)C[C@H]2C(=O)N[C@H](C)C(F)=C(C)C)c2c(C)cc(-c3cnc4cc(C)nn4c3)cc12 [Compound 34, (2S,4R)-1-(2-(3-acetyl-7-methyl-5-(2-methylpyr-azolo[1,5-a]pyrimidin-6-yl)-1H-indol-1-yl)acetyl)-4-fluoro-N-((R)-3-fluoro-4-methylpent-3-en-2-yl)-pyrrolidine-2-carboxamide]	> 6.00
COCc1ccc(C(F)(F)F)nc1NC(=O)[C@@H]1C[C@@]2(C)C[C@H]2N1C(=O)Cn1cc(C(C)=O)c2cc(-c3ccc4nc(C)nn4c3)c(F)c(C)c21 [Compound 5, (1R,3S,5R)-2-(2-(3-acetyl-6-fluoro-7-methyl-5-(2-methyl-[1,2,4]triazolo[1,5-a]pyridin-6-yl)-1H-indol-1-yl)acetyl)-N-(3-(meth-oxymethyl)-6-(trifluoro-methyl)pyridin-2-yl)-5-methyl-2-azabicyclo[3.1.0] hexane-3-carboxamide]	> 6.00
CC(=O)c1cn(CC(=O)N2[C@H](C(=O)Nc3ccn(CC(F)(F)F)n3)C[C@@]3(C)C[C@@H]23)c2c(C)cc(-c3cnc4cc(C)nn4c3)cc12 [Compound 64, (1R,3S,5R)-2-(2-(3-acetyl-7-methyl-5-(2-methylpyr-azolo[1,5-a]pyrimidin-6-yl)-1H-indol-1-yl)acetyl)-5-methyl-N-(1-(2,2,2-tri-fluoroethyl)-1H-pyrazol-3-yl)-2-azabicyclo[3.1.0] hexane-3-carboxamide]	> 6.00
COCc1ccc(C(F)(F)F)nc1NC(=O)[C@@H]1C[C@@]2(C)C[C@H]2N1C(=O)Cn1cc(C(C)=O)c2cc(-c3cnc4cc(C)nn4c3)c(F)c(C)c21 [Compound 2, (1R,3S,5R)-2-(2-(3-acetyl-6-fluoro-7-methyl-5-(2-methylpyrazolo[1,5-a]-pyrimidin-6-yl)-1H-indol-1-yl)acetyl)-N-(3-(meth-oxymethyl)-6-(trifluoro-methyl)pyridin-2-yl)-5-methyl-2-azabicyclo[3.1.0] hexane-3-carboxamide]	> 6.00
CC(=O)c1cn(CC(=O)N2[C@H](C(=O)N[C@@H](C)C(F)=C(C)C)C[C@@]3(C)C[C@@H]23)c2c(C)cc(-c3cnc(C)nc3)cc12 [Compound 31, (1R,3S,5R)-2-(2-(3-acetyl-7-methyl-5-(2-methylpyr-imidin-5-yl)-1H-indol-1-yl)acetyl)-N-((S)-3-fluoro-4-methylpent-3-en-2-yl)-5-methyl-2-azabicyclo[3.1.0] hexane-3-carboxamide]	> 6.00
CC(=O)c1cn(CC(=O)N2[C@H](C(=O)N[C@H](C)C(F)=C(C)C)C[C@@]3(C)C[C@@H]23)c2c(C)nc(-c3cnc(C)nc3)cc12 [Compound 36, (1R,3S,5R)-2-(2-(3-acetyl-7-methyl-5-(2-methylpyr-imidin-5-yl)-1H-pyrrolo [2,3-c]pyridin-1-yl)acetyl)-N-((R)-3-fluoro-4-methyl-pent-3-en-2-yl)-5-methyl-2-azabicyclo[3.1.0]hexane-3-carboxamide]	> 6.00
CC(=O)c1cn(CC(=O)N2[C@H](C(=O)Nc3nc(C(F)(F)F)cnc3C)C[C@@]3(C)C[C@@H]23)c2c(C)cc(-c3cnc4cc(C)nn4c3)cc12 [Compound 60, (1R,3S,5R)-2-(2-(3-acetyl-7-methyl-5-(2-methylpyr-azolo[1,5-a]pyrimidin-6-yl)-1H-indol-1-yl)acetyl)-5-methyl-N-(3-methyl-6-(trifluoromethyl)pyrazin-2-yl)-2-azabicyclo[3.1.0] hexane-3-carboxamide]	> 6.00
[2H]C([2H])([2H])OCc1ccc(C(F)(F)F)nc1NC(=O)[C@@H]1C[C@@]2(C)C[C@H]2N1C(=O)Cn1cc(C(C)=O)c2cc(-c3ccc4nc(C)nn4c3)cc(C)c21 [Compound 81, (1R,3S,5R)-2-(2-(3-acetyl-7-methyl-5-(2-methyl-[1,2,4]triazolo[1,5-a]pyr-idin-6-yl)-1H-indol-1-yl)-acetyl)-N-(3-((methoxy-d3)methyl-d2)-6-(trifluoro-methyl)pyridin-2-yl)-5-methyl-2-azabicyclo[3.1.0] hexane-3-carboxamide]	> 6.00
CC(=O)c1cn(CC(=O)N2[C@H](C(=O)Nc3nc(C(F)(F)F)ccc3C)C[C@@]3(C)C[C@@H]23)c2c(C)cc(-c3ccc4nc(C#N)nn4c3)cc12 [Compound 22, (1R,3S,5R)-2-(2-(3-acetyl-5-(2-cyano-[1,2,4]triazolo [1,5-a]pyridin-6-yl)-7-methyl-1H-indol-1-yl)acet-yl)-5-methyl-N-(3-methyl-6-(trifluoromethyl)pyridin-2-yl)-2-azabicyclo[3.1.0] hexane-3-carboxamide]	> 6.00
CC(=O)c1cn(CC(=O)N2[C@H](C(=O)Nc3nc(C(F)(F)F)ccc3C)C[C@@]3(C)C[C@@H]23)c2c(C)nc(-c3ccc4nc(C)nn4c3)cc12 [Compound 56, (1R,3S,5R)-2-(2-(3-acetyl-7-methyl-5-(2-methyl-[1,2,4]triazolo[1,5-a]pyr-idin-6-yl)-1H-pyrrolo[2,3-c]pyridin-1-yl)acetyl)-5-methyl-N-(3-methyl-6-(trifluoromethyl)pyridin-2-yl)-2-azabicyclo[3.1.0] hexane-3-carboxamide]	> 6.00
COCc1ccc(C(F)(F)F)nc1NC(=O)[C@@H]1C[C@@]2(C)C[C@H]2N1C(=O)Cn1cc(C(C)=O)c2cc(-c3cnc4cc(C)nn4c3)cc(C)c21 [Compound 53, (1R,3S,5R)-2-(2-(3-acetyl-7-methyl-5-(2-methylpyr-azolo[1,5-a]pyrimidin-6-yl)-1H-indol-1-yl)acetyl)-N-(3-(methoxymethyl)-6-(trifluoromethyl)pyridin-2-yl)-5-methyl-2-azabicyclo [3.1.0]hexane-3-carbox-amide]	> 6.00
CC(=O)c1cn(CC(=O)N2[C@H](C(=O)Nc3nc(Br)ccc3C)C[C@@]3(C)C[C@@H]23)c2cc3c(cc12)NC1(COC1)CO3 [Compound 20, (1R,3S,5R)-2-(2-(8′-acetyl-1′H-spiro[oxetane-3,2′-[1,4]oxazino[3,2-f]indol]-6′(3′H)-yl)acetyl)-N-(6-bromo-3-methylpyridin-2-yl)-5-methyl-2-azabicyclo [3.1.0]hexane-3-carbox-amide]	> 6.00
COCc1ccc(C(F)(F)F)nc1NC(=O)[C@@H]1[C@@H]2C[C@@H]2CN1C(=O)Cn1cc(C(C)=O)c2cc(-c3ccc4nc(C)nn4c3)cc(C)c21 [Compound 4, (1R,2S,5S)-3-(2-(3-acetyl-7-methyl-5-(2-methyl-[1,2,4]triazolo[1,5-a]pyr-idin-6-yl)-1H-indol-1-yl)-acetyl)-N-(3-(methoxy-methyl)-6-(trifluorometh-yl)pyridin-2-yl)-3-aza-bicyclo[3.1.0]hexane-2-carboxamide]	> 6.00
CC(=O)c1cn(CC(=O)N2C[C@H](F)C[C@H]2C(=O)Nc2ccn(CC(F)(F)F)n2)c2c(C)cc(-c3cnc4cc(C)nn4c3)cc12 [Compound 66, (2S,4R)-1-(2-(3-acetyl-7-methyl-5-(2-methylpyr-azolo[1,5-a]pyrimidin-6-yl)-1H-indol-1-yl)acetyl)-4-fluoro-N-(1-(2,2,2-tri-fluoroethyl)-1H-pyrazol-3-yl)pyrrolidine-2-carbox-amide]	> 6.00
CC(=O)c1cn(CC(=O)N2[C@H](C(=O)Nc3nc(C(F)(F)F)ccc3C)C[C@@]3(C)C[C@@H]23)c2c(C)nc(-c3cnc4cc(C)nn4c3)cc12 [Compound 55, (1R,3S,5R)-2-(2-(3-acetyl-7-methyl-5-(2-methylpyr-azolo[1,5-a]pyrimidin-6-yl)-1H-pyrrolo[2,3-c]pyr-idin-1-yl)acetyl)-5-methyl-N-(3-methyl-6-(trifluoro-methyl)pyridin-2-yl)-2-azabicyclo[3.1.0]hexane-3-carboxamide]	> 6.00
CC(=O)c1cn(CC(=O)N2C[C@H]3C[C@H]3[C@H]2C(=O)N[C@@H](C)C(F)=C(C)C)c2c(C)cc(-c3cnc4cc(C)nn4c3)cc12 [Compound 38, (1R,2S,5S)-3-(2-(3-acetyl-7-methyl-5-(2-methylpyr-azolo[1,5-a]pyrimidin-6-yl)-1H-indol-1-yl)acetyl)-N-((S)-3-fluoro-4-methyl-pent-3-en-2-yl)-3-azabi-cyclo[3.1.0]hexane-2-car-boxamide]	> 6.00
CC(=O)c1cn(CC(=O)N2[C@H](C(=O)Nc3ccn(CC(F)(F)F)n3)C[C@@]3(C)C[C@@H]23)c2c(C)cc(-c3ccc4nc(C)nn4c3)cc12 [Compound 65, (1R,3S,5R)-2-(2-(3-acetyl-7-methyl-5-(2-methyl-[1,2,4]triazolo[1,5-a]pyr-idin-6-yl)-1H-indol-1-yl)-acetyl)-5-methyl-N-(1-(2,2,2-trifluoroethyl)-1H-pyrazol-3-yl)-2-azabicyclo [3.1.0]hexane-3-carbox-amide]	> 6.00
CC(=O)c1cn(CC(=O)N2[C@H](C(=O)Nc3nc(C(F)(F)F)ccc3C)C[C@@]3(C)C[C@@H]23)c2c(C)c(F)c(-c3cnc(C)nc3)cc12 [Compound 44, (1R,3S,5R)-2-(2-(3-acetyl-6-fluoro-7-methyl-5-(2-methylpyrimidin-5-yl)-1H-indol-1-yl)acetyl)-5-meth-yl-N-(3-methyl-6-(tri-fluoromethyl)pyridin-2-yl)-2-azabicyclo[3.1.0] hexane-3-carboxamide]	> 6.00
CC(=O)c1cn(CC(=O)N2[C@H](C(=O)Nc3nc(Br)ccc3Cl)C[C@@]3(C)C[C@@H]23)c2c(C)cc(-c3cnc4cc(C)nn4c3)cc12 [Compound 47, (1R,3S,5R)-2-(2-(3-acetyl-7-methyl-5-(2-methylpyr-azolo[1,5-a]pyrimidin-6-yl)-1H-indol-1-yl)acetyl)-N-(6-bromo-3-chloropyr-idin-2-yl)-5-methyl-2-aza-bicyclo[3.1.0]hexane-3-carboxamide]	> 6.00
